Where “and” joins values, the source holds several entries; their conditions need not be identical. Identical values can stand only once.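 Briefly, cells in 96-well plates were exposed to five compound concentrations for 48 h, and endpoints were estimated by linear interpolation. GI50: concentration for 50% inhibition of growth. At the TGI there is no net growth.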
Columns and labels:
Experiment in all cases: NCI tumour cell line growth inhibition, 48 h
HOP-92 NSCLC = tested on: HOP-92 NSCLC
TK-10 renal = tested on: TK-10 renal
SNB-75 CNS = tested on: SNB-75 CNS
UACC-62 melanoma = tested on: UACC-62 melanoma
MOLT-4 leukemia = tested on: MOLT-4 leukemia
RXF 393 renal = tested on: RXF 393 renal
U251 CNS = tested on: U251 CNS
A549 NSCLC = tested on: A549 NSCLC
K-562 leukemia = tested on: K-562 leukemia
HCC-2998 colon = tested on: HCC-2998 colon

| SMILES | TGI (HOP-92 NSCLC) | TGI (TK-10 renal) | TGI (SNB-75 CNS) | TGI (UACC-62 melanoma) | TGI (MOLT-4 leukemia) | TGI (RXF 393 renal) [µM] | TGI (U251 CNS) | TGI (A549 NSCLC) | TGI (K-562 leukemia) | TGI (HCC-2998 colon) | GI50 (HOP-92 NSCLC) | GI50 (TK-10 renal) | GI50 (SNB-75 CNS) | GI50 (UACC-62 melanoma) | GI50 (MOLT-4 leukemia) | GI50 (RXF 393 renal) | GI50 (U251 CNS) | GI50 (A549 NSCLC) | GI50 (K-562 leukemia) | GI50 (HCC-2998 colon) |
| --- | --- | --- | --- | --- | --- | --- | --- | --- | --- | --- | --- | --- | --- | --- | --- | --- | --- | --- | --- | --- |
| O=C(O)C1=C(C(=O)Nc2ccc(NC(=O)C3=C(C(=O)O)C4C=CC3C4)cc2)C2C=CC1C2 | > 100 µM | > 100 µM | > 100 µM | > 100 µM | > 100 µM | > 100 | > 100 µM | > 100 µM | > 100 µM | > 100 µM | – | – | – | – | – | – | – | – | – | – |
| [Cl][Cd][Cl] | 35.3 µM | 192 µM | 45.6 µM and 29.4 µM | 35.9 µM and 20.8 µM | > 83.4 µM and 82.9 µM | 41.2 | 20.3 µM and 40.1 µM | > 66.5 µM and 106 µM | 51.3 µM and 147 µM | > 63.5 µM and 158 µM | > 80.2 µM and 15.2 µM | 90.5 µM | 22.7 µM and 11.2 µM | 5.02 µM and 20.2 µM and 7.81 µM | 31.4 µM and 11.8 µM | 50.1 µM and 13.6 µM | 14.7 µM and 13.6 µM | > 47.8 µM and 33.2 µM | 2.01 µM and 20 µM and 14.8 µM | 23.6 µM and 79 µM |
| C=CCCCc1ccc(C(O)CCCCCCCCCCCC)o1 (stereo not given) | 31.9 µM | 38.3 µM | 32 µM | 43 µM | 58.8 µM | 39.3 | 29.1 µM | 96.3 µM | > 100 µM | 55 µM | 15.4 µM | 21 µM | 15.5 µM | 17.7 µM | 19.6 µM | 19.6 µM | 15.5 µM | 30.4 µM | 24.5 µM | 22.1 µM |
| OCCN1CCN(CC/C=C2\c3ccccc3Sc3ccc(Cl)cc32)CC1 | 6.1 µM and 14.1 µM | 19.4 µM and 5.62 µM | 5.07 µM and 7.95 µM | 3.61 µM and 3.44 µM | 4.03 µM and 8.54 µM | 11.4 | 5.96 µM and 6.4 µM | 22.9 µM and 14.3 µM | 2.94 µM and 3.68 µM | 3.8 µM and 3.16 µM | 1.02 µM and 2.44 µM | 4.59 µM and 2.07 µM | 1.41 µM and 2.7 µM | 1.73 µM and 1.77 µM | 1.76 µM and 2.91 µM | 4.16 µM | 2.34 µM and 2.46 µM | 4.79 µM and 4.13 µM | 1.52 µM and 1.77 µM | 1.99 µM and 1.68 µM |
| C[C@H]1C(=O)CC[C@]2(C)CCC(C(C)(C)O)CC12O (stereo not given in full) | > 100 µM | > 100 µM | > 100 µM | > 100 µM | > 100 µM | > 100 | > 100 µM | > 100 µM | > 100 µM | > 100 µM | – | – | – | – | – | – | – | – | – | – |
| CCC(=O)N/N=C(\C=C\c1cccc(O)c1)c1sc(Nc2ccc(C)cc2[N+](=O)[O-])nc1C | 27.5 µM | > 100 µM | > 100 µM | > 100 µM | > 100 µM | > 100 | > 100 µM | > 100 µM | > 100 µM | > 100 µM | – | – | – | – | – | – | – | – | – | – |
| O=C(NS(=O)(=O)c1ccccc1)C(Cc1ccccc1)C(Cc1ccccc1)C(=O)NS(=O)(=O)c1ccccc1 (stereo not given) | > 100 µM | > 100 µM | > 100 µM | > 100 µM | > 100 µM | > 100 | > 100 µM | > 100 µM | > 100 µM | > 100 µM | – | – | – | – | – | – | – | – | – | – |
